The text below walks through data of US8178506B2, “Oligomeric compounds and compositions for use in modulation of small non-coding RNAs” (Regulus Therapeutics Inc., priority 2003, dated 2012).

Type in all cases: cell-based, human
One data set deals with adipocytes. Description: Triglyceride accumulation assay in adipocytes.
The next data set has as its system aP2. Description: aP2 mRNA expression in adipocytes (real-time PCR). The conditions noted are these: for aP2 mRNA: Table 75. (In general: Quantitative PCR measures a nucleic acid by following its amplification.)
Another data set has as its system HSL. Nature of the data set: HSL mRNA expression in adipocytes (real-time PCR).
Another data set relates to Glut4. Description: Glut4 mRNA expression in adipocytes (real-time PCR).
For the next data set, the system named is PPARγ. Nature of the data set: PPARγ mRNA expression in adipocytes (real-time PCR).
[1] abbreviates: differentiating adipocytes transfected with oligomeric compound, Table 75.
Setting [2] is: differentiating adipocytes transfected with oligomeric compound.
[3] abbreviates: Table 17, differentiating adipocytes, control = treatment with ISIS 342673.
Where [4] appears, read: Table 18, differentiating adipocytes, control = treatment with ISIS 342673.

In the oligonucleotide strings, read from the 5' end, every base follows the letter of its sugar. An asterisk marks phosphorothioate; unmarked linkages are phosphodiester. Other units and linkages are bracketed, terminal groups are in braces. A string of capitals states the bases alone. e = 2'-O-(2-methoxyethyl) (MOE); [5mC] = 5-methylcytosine

Turning to “344277 (antisense AAUACAUACUUCUUUACAUUCCA; all 2'-MOE, all phosphorothioate, methylation of C and T or U not given here) [compound 344277]”, the “TG (triglyceride accumulation)” value in the data set on adipocytes (setting [1]) was 75 percentage of untreated control (UTC). In addition, in the data set on aP2 (setting [2]), the “aP2 mRNA” value is recorded as 61 percentage of untreated control (UTC). Further, the “HSL mRNA” value in the data set with HSL (setting [1]) was 57 percentage of untreated control (UTC). In addition, the “GLUT4 mRNA” value in the data set with Glut4 (setting [1]) is on record as 45 percentage of untreated control (UTC). The “PPAR gamma mRNA” value with PPARγ (setting [1]) is on record as 68 percentage of untreated control (UTC).
Take “346695 (CACUGGUACAAGGGUUGGGAGA; all 2'-MOE, all phosphorothioate, methylation of C and T or U not given here) [compound 346695]”: in the data set on adipocytes (setting [1]), the “TG (triglyceride accumulation)” value is 69 percentage of untreated control (UTC). Also, the “aP2 mRNA” value in the data set with aP2 (setting [2]) is 72 percentage of untreated control (UTC). Also, the “HSL mRNA” value in the data set with HSL (setting [1]) is 73 percentage of untreated control (UTC). The “GLUT4 mRNA” value in the data set with Glut4 (setting [1]) is recorded as 58 percentage of untreated control (UTC). For the same substance, the “PPAR gamma mRNA” value in the data set with PPARγ (setting [1]) is on record as 78 percentage of untreated control (UTC).
As for “346689 (CAUCAUUACCAGGCAGUAUUAGAG; all 2'-MOE, all phosphorothioate, methylation of C and T or U not given here) [compound 346689]”, the “TG (triglyceride accumulation)” value with adipocytes (setting [1]) is on record as 59 percentage of untreated control (UTC). Besides, the “aP2 mRNA” value with aP2 (setting [2]) was 79 percentage of untreated control (UTC). For the same substance, the “HSL mRNA” value in the data set with HSL (setting [1]) is reported as 63 percentage of untreated control (UTC). Further, the “GLUT4 mRNA” value in the data set with Glut4 (setting [1]) is reported as 45 percentage of untreated control (UTC). In the data set on PPARγ (setting [1]), the “PPAR gamma mRNA” value is given as 64 percentage of untreated control (UTC).
For “341798 (antisense GCAUUAUUACUCACGGUACGA; all 2'-MOE, all phosphorothioate, methylation of C and T or U not given here) [compound 341798]”, the “TG (triglyceride accumulation)” value in the data set with adipocytes (setting [1]) is listed as 62 percentage of untreated control (UTC). Besides, the “aP2 mRNA” value in the data set with aP2 (setting [2]) is recorded as 84 percentage of untreated control (UTC). Moreover, the “HSL mRNA” value with HSL (setting [1]) is listed as 77 percentage of untreated control (UTC). In addition, the “GLUT4 mRNA” value in the data set on Glut4 (setting [1]) was 55 percentage of untreated control (UTC). The “PPAR gamma mRNA” value with PPARγ (setting [1]) is given as 70 percentage of untreated control (UTC).
For “348127 (GCAGAACUUAGCCACUGUGAA; all 2'-MOE, all phosphorothioate, methylation of C and T or U not given here) [compound 348127]”, in the data set on adipocytes (setting [1]), the “TG (triglyceride accumulation)” value is reported as 155 percentage of untreated control (UTC). Also, the “aP2 mRNA” value in the data set with aP2 (setting [2]) is reported as 185 percentage of untreated control (UTC). Also, the “HSL mRNA” value with HSL (setting [1]) is recorded as 150 percentage of untreated control (UTC). In addition, the “GLUT4 mRNA” value in the data set on Glut4 (setting [1]) was 201 percentage of untreated control (UTC). Further, the “PPAR gamma mRNA” value with PPARγ (setting [1]) is on record as 130 percentage of untreated control (UTC).
On to “328093 (antisense eT*eA*eA*eA*e[5mC]*eA*eT*e[5mC]*eA*e[5mC]*eT*eG*e[5mC]*eA*eA*eG*eT*e[5mC]*eT*eT*eA) [compound 328093]”, for which the “TG (triglyceride accumulation)” value in the data set on adipocytes (setting [2]) is listed as 59 percentage of untreated control (UTC). Also, in the data set on aP2 (setting [2]), the “AP2 mRNA” value is listed as 97 percentage of untreated control (UTC). The “HSL mRNA” value with HSL (setting [2]) is given as 89 percentage of untreated control (UTC). In addition, in the data set with Glut4 (setting [2]), the “GLUT4 mRNA” value is 73 percentage of untreated control (UTC). Also, in the data set on PPARγ (setting [2]), the “PPAR gamma mRNA” value was 99 percentage of untreated control (UTC).
Turning to “328134 (eA*eA*eT*eT*eG*eG*eA*e[5mC]*eA*eA*eA*eG*eT*eG*e[5mC]*e[5mC]*eT*eT*eT*e[5mC]*eA; anti-miR) [compound 328134]”, the figures for the “TG (triglyceride accumulation)” value in the data set with adipocytes (setting [3]) and in the data set on adipocytes (setting [1]) were 85.7 percentage of control and 107 percentage of untreated control (UTC), respectively. In the data set with aP2 (setting [3]), the “AP2 mRNA” value is on record as 80.1 percentage of control. Further, the “aP2 mRNA” value with aP2 (setting [2]) is recorded as 97 percentage of untreated control (UTC). Further, the “HSL mRNA” value is given as 74.7 percentage of control in the data set with HSL (setting [3]) and 109 percentage of untreated control (UTC) in the data set with HSL (setting [1]). For the same substance, the “GLUT4 mRNA” value was 88.3 percentage of control with Glut4 (setting [3]) and 109 percentage of untreated control (UTC) in the data set with Glut4 (setting [1]). Also, the entries for the “PPAR gamma mRNA” value in the data set on PPARγ (setting [3]) and with PPARγ (setting [1]) were 78.4 percentage of control and 86 percentage of untreated control (UTC), respectively.
In the case of “328098 (antisense eG*eA*eG*eA*eA*eT*e[5mC]*eA*eA*eT*eA*eG*eG*eG*e[5mC]*eA*eT*eG*e[5mC]*eA*eA) [compound 328098]”, the “TG (triglyceride accumulation)” value in the data set with adipocytes (setting [1]) is 39 percentage of untreated control (UTC). The “aP2 mRNA” value in the data set on aP2 (setting [2]) is 23 percentage of untreated control (UTC). In addition, the “HSL mRNA” value with HSL (setting [1]) is listed as 28 percentage of untreated control (UTC). In addition, in the data set on Glut4 (setting [1]), the “GLUT4 mRNA” value is on record as 25 percentage of untreated control (UTC). Also, in the data set with PPARγ (setting [1]), the “PPAR gamma mRNA” value is 54 percentage of untreated control (UTC).
“344612 (ACGGAAGGGCAGAGAGGGCCAG; anti-miR; all 2'-MOE, all phosphorothioate, methylation of C not given here) [compound 344612]”: in the data set with adipocytes (setting [1]), the “TG (triglyceride accumulation)” value is 69 percentage of untreated control (UTC). Further, the “aP2 mRNA” value in the data set with aP2 (setting [2]) is 72 percentage of untreated control (UTC). Also, the “HSL mRNA” value with HSL (setting [1]) is recorded as 59 percentage of untreated control (UTC). Further, the “GLUT4 mRNA” value in the data set with Glut4 (setting [1]) is reported as 40 percentage of untreated control (UTC). Besides, the “PPAR gamma mRNA” value in the data set with PPARγ (setting [1]) is 62 percentage of untreated control (UTC).
In the case of “346920 (AGCAAAAAUGUGCUAGUGCCAAA; all 2'-MOE, all phosphorothioate, methylation of C and T or U not given here) [compound 346920]”, the “TG (triglyceride accumulation)” value in the data set on adipocytes (setting [1]) is 63 percentage of untreated control (UTC). In the data set with aP2 (setting [2]), the “aP2 mRNA” value is given as 70 percentage of untreated control (UTC). The “HSL mRNA” value in the data set with HSL (setting [1]) was 53 percentage of untreated control (UTC). Further, the “GLUT4 mRNA” value with Glut4 (setting [1]) is 61 percentage of untreated control (UTC). In addition, the “PPAR gamma mRNA” value with PPARγ (setting [1]) is 70 percentage of untreated control (UTC).
“344615 (UCAACAAAAUCACUGAUGCUGGA; anti-miR; all 2'-MOE, all phosphorothioate, methylation of C and T or U not given here) [compound 344615]”: in the data set on adipocytes (setting [1]), the “TG (triglyceride accumulation)” value is 149 percentage of untreated control (UTC). Moreover, the “aP2 mRNA” value in the data set with aP2 (setting [2]) was 166 percentage of untreated control (UTC). Moreover, in the data set with HSL (setting [1]), the “HSL mRNA” value is given as 154 percentage of untreated control (UTC). In the data set with Glut4 (setting [1]), the “GLUT4 mRNA” value is given as 145 percentage of untreated control (UTC). Also, the “PPAR gamma mRNA” value in the data set with PPARγ (setting [1]) is 144 percentage of untreated control (UTC).
Take “328113 (antisense e[5mC]*eA*eA*eA*eA*eA*eT*eT*eA*eT*e[5mC]*eA*eG*e[5mC]*e[5mC]*eA*eG*eT*eT*eT*eA) [compound 328113]”: the “TG (triglyceride accumulation)” value was 80.8 percentage of control with adipocytes (setting [4]) and 74 percentage of untreated control (UTC) in the data set on adipocytes (setting [1]). The “AP2 mRNA” value in the data set with aP2 (setting [4]) was 84.5 percentage of control. In addition, in the data set with aP2 (setting [2]), the “aP2 mRNA” value was 87 percentage of untreated control (UTC). For the same substance, the figures for the “HSL mRNA” value with HSL (setting [4]) and with HSL (setting [1]) were 90.6 percentage of control and 83 percentage of untreated control (UTC), respectively. In addition, the “GLUT4 mRNA” value was 99.9 percentage of control in the data set with Glut4 (setting [4]) and 78 percentage of untreated control (UTC) in the data set with Glut4 (setting [1]). Moreover, the “PPAR gamma mRNA” value was 93.8 percentage of control with PPARγ (setting [4]) and 85 percentage of untreated control (UTC) in the data set with PPARγ (setting [1]).
“328101 (antisense eA*eA*eA*e[5mC]*e[5mC]*e[5mC]*e[5mC]*eT*eA*eT*e[5mC]*eA*e[5mC]*eG*eA*eT*eT*eA*eG*e[5mC]*eA) [compound 328101]”: the results for the “TG (triglyceride accumulation)” value in the data set with adipocytes (setting [4]) and in the data set on adipocytes (setting [1]) were 108.6 percentage of control and 67 percentage of untreated control (UTC), respectively. In the data set with aP2 (setting [4]), the “AP2 mRNA” value is on record as 83.2 percentage of control. The “aP2 mRNA” value in the data set on aP2 (setting [2]) is recorded as 83 percentage of untreated control (UTC). Also, the “HSL mRNA” value in the data set on HSL (setting [4]) is 91.8 percentage of control; in the data set with HSL (setting [1]), 78 percentage of untreated control (UTC). The “GLUT4 mRNA” value was 84.7 percentage of control in the data set with Glut4 (setting [4]) and 57 percentage of untreated control (UTC) with Glut4 (setting [1]). The “PPAR gamma mRNA” value in the data set with PPARγ (setting [4]) was 79.3 percentage of control; in the data set on PPARγ (setting [1]), 70 percentage of untreated control (UTC).
Consider “346688 (UAGUUGGCAAGUCUAGAACCA; all 2'-MOE, all phosphorothioate, methylation of C and T or U not given here) [compound 346688]”, for which the “TG (triglyceride accumulation)” value in the data set with adipocytes (setting [1]) is given as 33 percentage of untreated control (UTC). For the same substance, in the data set on aP2 (setting [2]), the “aP2 mRNA” value is listed as 48 percentage of untreated control (UTC). Also, the “HSL mRNA” value in the data set with HSL (setting [1]) is on record as 39 percentage of untreated control (UTC). Moreover, in the data set on Glut4 (setting [1]), the “GLUT4 mRNA” value was 12 percentage of untreated control (UTC). Also, the “PPAR gamma mRNA” value in the data set with PPARγ (setting [1]) is listed as 55 percentage of untreated control (UTC).
Take “346686 (CUUCAGUUAUCACAGUACUGUA; all 2'-MOE, all phosphorothioate, methylation of C and T or U not given here) [compound 346686]”: the “TG (triglyceride accumulation)” value in the data set with adipocytes (setting [1]) is listed as 73 percentage of untreated control (UTC). For the same substance, in the data set with aP2 (setting [2]), the “aP2 mRNA” value was 83 percentage of untreated control (UTC). Moreover, in the data set on HSL (setting [1]), the “HSL mRNA” value is given as 80 percentage of untreated control (UTC). Moreover, the “GLUT4 mRNA” value in the data set with Glut4 (setting [1]) is 73 percentage of untreated control (UTC). For the same substance, in the data set with PPARγ (setting [1]), the “PPAR gamma mRNA” value is 83 percentage of untreated control (UTC).
